Tests used:
[1] = tested on: glycosidase enzymes of Table 4.1; assay: Glycosidase inhibition screening, whole enzyme panel; format: biochemical; conditions: 1 mg/ml
Procedure: (§1) All enzymes were purchased from Sigma, as were the appropriate p-nitrophenyl substrates. Assays were carried out in microtitre plates. Enzymes were assayed in 0.1M citric acid/0.2M di-sodium hydrogen phosphate (McIlvaine) buffers at the optimum pH for the enzyme. All assays were carried out at 20° C. For screening assays the incubation assay consisted of 10 μl of enzyme solution, 10 μl of inhibitor solution (made up in water) and 50 μl of the appropriate 5 mM p-nitrophenyl substrate (3.57 mM final conc.) made up in McIlvaine buffer at the optimum pH for the enzyme.
(§2) The reactions were stopped with 0.4M glycine (pH 10.4) during the exponential phase of the reaction, which was determined at the beginning of the assay using blanks with water, which were incubated for a range of time periods to measure the reaction rate using 5 mM substrate solution. Endpoint absorbances were read at 405 nm with a Biorad microtitre plate reader (Benchmark). Water was substituted for the inhibitors in the blanks.

spleen cells = assay: Cytokine modulation in spleen cells (IFN-γ); format: cell-based, BALB/c mice; conditions: Table 3.1
Procedure: BALB/c male and female mice bred and maintained at the University of Strathclyde under conventional conditions were used at varying age.
Cells suspensions were prepared by using the end of a syringe and grinding the spleen through a wire mesh. The cell suspension was then centrifuged at 1000 rpm for 5 minutes. To remove the erythrocytes, the cell pellet was resuspended in Boyle's solution (Tris 0.17M & Ammonium Chloride 0.16M) and centrifuged again for 5 minutes. The pellet was then washed in medium a further two times, then resuspended in 3 mls medium. A cell count was then carried out.
All spleen cell experiments were carried out in 96-well tissue culture plates. […] Unstimulated wells contained 100 μl of cells and 100 μl of medium. The stimulated wells contained 100 μl of cells plus 50 μl of LPS at 1 μg/ml or 50 μl anti-CD3 at 0.5 μg/ml and 50 μl of medium. The remaining wells contained 100 μl cells, 5 μl of MNLP compound and either 50 μl of anti-CD3 or medium alone.
The appropriate Mabs and standards were used according to the protocol described for IL-12 (described in Example 1, above).

dendritic cells = conditions: treatment alone
α-D-glucosidase [2] = target: T1, α-D-glucosidase (Oryza sativa subsp. japonica, UniProt Q653V7); assay: Glycosidase inhibition: α-D-glucosidase, rice; format: biochemical, rice (Oryza sativa); conditions: 1 mg/ml; read-out: % inhibition, gluc (rice)
T1 construct: purchased Sigma
T1 sequence (Q653V7 34-885): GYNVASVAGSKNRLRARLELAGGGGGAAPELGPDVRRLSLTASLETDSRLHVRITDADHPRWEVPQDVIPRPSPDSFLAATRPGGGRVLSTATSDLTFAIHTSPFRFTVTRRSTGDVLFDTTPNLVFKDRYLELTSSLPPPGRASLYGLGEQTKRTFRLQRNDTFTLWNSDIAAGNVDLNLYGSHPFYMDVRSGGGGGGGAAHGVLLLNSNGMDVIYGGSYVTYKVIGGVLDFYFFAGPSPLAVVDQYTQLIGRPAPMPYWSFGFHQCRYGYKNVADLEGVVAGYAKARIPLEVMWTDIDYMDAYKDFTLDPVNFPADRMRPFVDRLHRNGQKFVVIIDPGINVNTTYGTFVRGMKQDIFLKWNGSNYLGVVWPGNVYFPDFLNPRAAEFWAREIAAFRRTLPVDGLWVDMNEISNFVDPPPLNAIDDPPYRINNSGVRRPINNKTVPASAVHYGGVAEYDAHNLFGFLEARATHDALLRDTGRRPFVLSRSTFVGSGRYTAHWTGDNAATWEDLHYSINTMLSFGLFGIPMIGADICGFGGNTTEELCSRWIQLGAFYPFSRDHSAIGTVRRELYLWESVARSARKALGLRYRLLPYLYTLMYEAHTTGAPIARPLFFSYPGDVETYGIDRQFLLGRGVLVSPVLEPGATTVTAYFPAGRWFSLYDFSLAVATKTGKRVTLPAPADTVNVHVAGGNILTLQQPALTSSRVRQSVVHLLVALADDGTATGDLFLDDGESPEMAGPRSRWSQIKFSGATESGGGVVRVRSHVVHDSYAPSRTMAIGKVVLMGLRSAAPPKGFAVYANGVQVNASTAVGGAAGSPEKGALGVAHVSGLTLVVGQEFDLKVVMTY
Procedure: as §1, §2

[3] = tested on: spleen cells from Leishmania major infected BALB/c mice; assay: Th1:Th2 response in non-healing leishmaniasis model, spleen cells ex vivo; format: cell-based; conditions: for IFN-γ: Table 10.1
Naringinase = assay: Glycosidase inhibition: Naringinase; format: biochemical, Penecillium decumbens; conditions: 1 mg/ml
Procedure: as §1, §2

α-D-mannosidase = target: T2, α-D-mannosidase (Canavalia ensiformis, UniProt C0HJB3); assay: Glycosidase inhibition: α-D-mannosidase; format: biochemical, Jack beans (Canavalia ensiformis); conditions: read-out: % inhibition, mannosidase
T2 construct: purchased Sigma
T2 sequence (C0HJB3 whole entry): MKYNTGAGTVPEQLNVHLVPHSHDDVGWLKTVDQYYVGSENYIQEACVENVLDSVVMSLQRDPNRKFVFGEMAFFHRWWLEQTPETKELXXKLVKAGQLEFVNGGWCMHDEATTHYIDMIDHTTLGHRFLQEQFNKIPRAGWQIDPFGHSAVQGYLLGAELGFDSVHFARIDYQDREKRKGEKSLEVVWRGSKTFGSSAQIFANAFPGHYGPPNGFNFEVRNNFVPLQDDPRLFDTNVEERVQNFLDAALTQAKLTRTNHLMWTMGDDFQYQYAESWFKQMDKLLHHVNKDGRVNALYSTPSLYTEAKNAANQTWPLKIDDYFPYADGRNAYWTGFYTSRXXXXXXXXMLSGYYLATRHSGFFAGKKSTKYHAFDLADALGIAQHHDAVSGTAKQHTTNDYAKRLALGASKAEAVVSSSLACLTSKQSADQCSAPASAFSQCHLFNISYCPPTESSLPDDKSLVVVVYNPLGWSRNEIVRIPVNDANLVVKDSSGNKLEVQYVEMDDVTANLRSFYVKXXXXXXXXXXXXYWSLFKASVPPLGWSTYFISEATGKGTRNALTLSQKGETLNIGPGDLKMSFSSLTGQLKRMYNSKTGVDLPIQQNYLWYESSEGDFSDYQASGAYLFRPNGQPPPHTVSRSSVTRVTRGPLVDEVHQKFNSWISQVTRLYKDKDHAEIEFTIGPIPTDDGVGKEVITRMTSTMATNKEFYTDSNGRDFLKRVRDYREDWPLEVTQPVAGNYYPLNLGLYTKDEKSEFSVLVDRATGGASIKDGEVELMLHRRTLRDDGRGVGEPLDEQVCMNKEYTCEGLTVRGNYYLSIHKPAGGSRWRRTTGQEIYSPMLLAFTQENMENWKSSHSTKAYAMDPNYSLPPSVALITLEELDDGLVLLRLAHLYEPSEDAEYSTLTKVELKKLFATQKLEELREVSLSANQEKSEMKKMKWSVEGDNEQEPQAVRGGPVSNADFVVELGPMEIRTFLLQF
Procedure: All enzymes were purchased from Sigma, as were the appropriate p-nitrophenyl substrates. Assays were carried out in microtitre plates. Enzymes were assayed in 0.1M citric acid/0.2M di-sodium hydrogen phosphate (McIlvaine) buffers at the optimum pH for the enzyme. All assays were carried out at 20° C.
Endpoint absorbances were read at 405 nm with a Biorad microtitre plate reader (Benchmark). Water was substituted for the inhibitors in the blanks.

[4] = tested on: Influenza vaccine-specific IgG, IgG1 and IgG2a; design: species or system Balb/c mice; conditions: mouse, in vivo
β-D-glucosidase = assay: Glycosidase inhibition: β-D-glucosidase, almond; format: biochemical, Almonds (Prunus sp.); conditions: 1 mg/ml
Procedure: as §1, §2

[5] = tested on: N-acetyl-β-D-glucosaminidase; assay: Glycosidase inhibition: N-acetyl-β-D-glucosaminidase; format: biochemical, Bovine; conditions: 1 mg/ml
Procedure: as §1, §2

α-L-fucosidase = target: T3, α-L-fucosidase (Bos taurus, UniProt Q2KIM0); assay: Glycosidase inhibition: α-L-fucosidase; format: biochemical, Bovine; conditions: 1 mg/ml; read-out: % inhibition, fucosidase
T3 construct: purchased Sigma
T3 sequence (Q2KIM0 23-468): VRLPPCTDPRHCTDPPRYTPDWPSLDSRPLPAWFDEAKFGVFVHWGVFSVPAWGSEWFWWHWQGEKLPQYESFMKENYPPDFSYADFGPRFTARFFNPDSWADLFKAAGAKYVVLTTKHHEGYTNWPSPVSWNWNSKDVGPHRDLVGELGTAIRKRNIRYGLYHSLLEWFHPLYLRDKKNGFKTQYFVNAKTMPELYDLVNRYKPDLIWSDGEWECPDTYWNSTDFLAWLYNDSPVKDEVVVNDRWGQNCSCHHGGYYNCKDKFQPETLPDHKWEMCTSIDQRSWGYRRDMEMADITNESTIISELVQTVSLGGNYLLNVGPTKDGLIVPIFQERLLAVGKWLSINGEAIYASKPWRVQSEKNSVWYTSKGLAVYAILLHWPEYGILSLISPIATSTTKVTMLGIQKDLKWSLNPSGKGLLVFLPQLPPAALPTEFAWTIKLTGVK
Procedure: as §1, §2

α-D-glucosidase [6] = assay: Glycosidase inhibition: α-D-glucosidase, Bacillus; format: biochemical, Bacillus stearothermophilus; conditions: 1 mg/ml
Procedure: as §1, §2

OC[C@H]1[C@@H](O)[C@H](O)[C@H]2[C@@H](O)[C@@H](O)CN21 [3,7-diepi-casuarine (10), (1R,2R,3S,6S,7R,7aR)-3-(hydroxymethyl)-1,2,6,7-tetrahydroxypyrolizidine]
inhibition of the enzymes tested [1]: do not significantly inhibit any of the enzymes tested
IFN-γ (spleen cells; + αCD3): 13.50 ng/mL
IFN-γ (spleen cells; treatment alone): 0.22 ng/mL
IL-2 (dendritic cells): 0.00 units/ml
inhibition at 1000 µg/mL (α-D-glucosidase [2]): 7%
IFN-γ ([3]; + L. major Ag): 5.5 ng/mL
IFN-γ ([3]; treatment alone): ~0.5 ng/mL
IL-5 ([3]; Table 10.2, + αCD3): 150 pg/mL
Th2-skewed immune response profile ([3]; ex vivo): clearly reversed
% inhibition, Naringinase (Naringinase): 6%
inhibition at 1000 µg/mL (α-D-mannosidase): 8%
influenza-specific IgG1 response versus vaccine alone [4]: statistically significant increased
influenza-specific IgG2a responses versus vaccine alone [4]: No significant differences
influenza-specific IgGtotal response versus vaccine alone [4]: statistically significant increased
% inhibition, glucosidase (β-D-glucosidase): 5%
% inhibition, N-acetyl-β-gluc [5]: −6%
inhibition at 1000 µg/mL (α-L-fucosidase): 5%
% inhibition, gluc (Bacillus) (α-D-glucosidase [6]): −7%
